The term Ki denotes a dissociation constant, usually derived from enzyme kinetics or from competition with a known ligand.

Where only a bound is given, the exact number is not on record here.

For this assay, the target named is human NK-3 receptor (Homo sapiens (Human), UniProt P29371). The assay is described as follows: 3H-SB222200 binding competition assay with human NK-3 receptor. As to conditions: 3H-SB222200 displacement, CHO cell membranes expressing human NK3 receptor; read-out: Ki range. The essentials: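 Membranes from CHO cells expressing human NK3 receptor incubated with 5 nM 3H-SB222200 and test compound in HEPES 25 mM/NaCl 0.1M/CaCl2 1 mM/MgCl2 5 mM/BSA 0.5%/saponin 10 μg/ml, pH 7.4. Bound radioligand counted after filtration; Ki calculated, reported in bands (+++ <500 nM to # >5 μM).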
human NK-3 receptor, sequence (P29371 whole entry): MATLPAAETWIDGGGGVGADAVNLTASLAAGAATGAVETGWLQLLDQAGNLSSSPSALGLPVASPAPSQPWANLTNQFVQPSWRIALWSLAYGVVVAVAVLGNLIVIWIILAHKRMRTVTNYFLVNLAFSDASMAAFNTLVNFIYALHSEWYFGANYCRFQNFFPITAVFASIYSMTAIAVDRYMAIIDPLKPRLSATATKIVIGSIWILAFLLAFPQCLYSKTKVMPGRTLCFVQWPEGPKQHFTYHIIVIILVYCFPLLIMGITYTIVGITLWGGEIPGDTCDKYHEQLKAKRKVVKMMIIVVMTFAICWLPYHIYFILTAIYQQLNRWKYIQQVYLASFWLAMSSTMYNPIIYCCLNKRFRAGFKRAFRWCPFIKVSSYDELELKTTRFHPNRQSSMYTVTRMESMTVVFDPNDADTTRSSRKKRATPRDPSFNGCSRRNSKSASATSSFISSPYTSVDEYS
For the compound `C[C@@H]1c2nnc(-c3coc(-c4ccccc4)n3)n2CCN1C(=O)c1ccc(-c2ccccc2)cc1` [Compound 131, (R)-[1,1′-biphenyl]-4-yl(8-methyl-3-(2-phenyloxazol-4-yl)-5,6-dihydro-[1,2,4]triazolo[4,3-a]pyrazin-7(8H)-yl)methanone], the Ki is < 500 nM.

On to `C[C@@H]1c2nnc(-c3csc(N4CCOCC4)n3)n2CCN1C(=O)c1ccc(-c2ccc(F)cc2)cc1` [Compound 134, (R)-(4′-fluoro-[1,1′-biphenyl]-4-yl)(8-methyl-3-(2-morpholinothiazol-4-yl)-5,6-dihydro-[1,2,4]triazolo[4,3-a]pyrazin-7(8H)-yl)methanone], for which the inhibition constant (Ki) is < 500 nM.

Consider `C[C@@H]1c2nnc(-c3csc(-c4ccccc4)n3)n2CCN1C(=O)c1ccc(-c2cccs2)cc1` [Compound 135, (R)-(8-methyl-3-(2-phenylthiazol-4-yl)-5,6-dihydro-[1,2,4]triazolo[4,3-a]pyrazin-7(8H)-yl)(4-(thiophen-2-yl)phenyl)methanone], for which the inhibition constant Ki is < 500 nM.

`C[C@@H]1c2nnc(-c3csc(N4CCOCC4)n3)n2CCN1C(=O)c1ccc(-c2cccs2)cc1` [Compound 136, (R)-(8-methyl-3-(2-morpholinothiazol-4-yl)-5,6-dihydro-[1,2,4]triazolo[4,3-a]pyrazin-7(8H)-yl)(4-(thiophen-2-yl)phenyl)methanone]: the Ki was < 500 nM.

For `C[C@H]1c2nnc(-c3ccccn3)n2CCN1C(=O)c1ccc(F)cc1` [Compound 159, (S)-(4-fluorophenyl)(8-methyl-3-(pyridin-2-yl)-5,6-dihydro-[1,2,4]triazolo[4,3-a]pyrazin-7(8H)-yl)methanone], the inhibition constant (Ki) is > 5000 nM.

As for `C[C@H]1c2nnc(-c3csc(-c4ccc(F)cc4)n3)n2CCN1C(=O)c1ccc(F)cc1` [Compound 160, (S)-(4-fluorophenyl)(3-(2-(4-fluorophenyl)thiazol-4-yl)-8-methyl-5,6-dihydro-[1,2,4]triazolo[4,3-a]pyrazin-7(8H)-yl)methanone], the Ki was in the range of 1000 to 5000 nM.

Consider `C[C@H]1c2nnc(-c3csc(N4CCOCC4)n3)n2CCN1C(=O)c1ccc(-c2ccc(F)cc2)cc1` [Compound 161, (S)-(4′-fluoro-[1,1′-biphenyl]-4-yl)(8-methyl-3-(2-morpholinothiazol-4-yl)-5,6-dihydro-[1,2,4]triazolo[4,3-a]pyrazin-7(8H)-yl)methanone], for which the Ki lay in the range of 1000 to 5000 nM.

Take `C[C@H]1c2nnc(-c3ccc4ccccc4n3)n2CCN1C(=O)c1ccc(F)cc1` [Compound 162, (S)-(4-fluorophenyl)(8-methyl-3-(quinolin-2-yl)-5,6-dihydro-[1,2,4]triazolo[4,3-a]pyrazin-7(8H)-yl)methanone]: the Ki was < 500 nM.

For `C[C@H]1c2nnc(-c3ccc4ccccc4n3)n2CCN1C(=O)c1ccc(-c2cccs2)cc1` [Compound 163, (S)-(8-methyl-3-(quinolin-2-yl)-5,6-dihydro-[1,2,4]triazolo[4,3-a]pyrazin-7(8H)-yl)(4-(thiophen-2-yl)phenyl)methanone], the Ki was in the range of 500 to 1000 nM.

As to `C[C@H]1c2nnc(-c3csc(-c4ccc(F)cc4)n3)n2CCN1C(=O)c1ccc(F)cc1` [Compound 164, (S)-(4-fluorophenyl)(3-(2-(4-fluorophenyl)thiazol-4-yl)-8-methyl-5,6-dihydro-[1,2,4]triazolo[4,3-a]pyrazin-7(8H)-yl)methanone], the inhibition constant Ki was < 500 nM.

Take `C[C@H]1c2nnc(-c3csc(-c4ccc(F)cc4F)n3)n2CCN1C(=O)c1ccc(-c2cccs2)cc1` [Compound 165, (S)-(3-(2-(2,4-difluorophenyl)thiazol-4-yl)-8-methyl-5,6-dihydro-[1,2,4]triazolo[4,3-a]pyrazin-7(8H)-yl)(4-(thiophen-2-yl)phenyl)methanone]: the Ki is < 500 nM.

Take `CC1c2nnc(-c3csc(-c4ccccc4)n3)n2CCN1C(=O)c1ccc(F)cc1` (centres unmarked) [Compound 166, (4-fluorophenyl)(8-methyl-3-(2-phenylthiazol-4-yl)-5,6-dihydro-[1,2,4]triazolo[4,3-a]pyrazin-7(8H)-yl)methanone]: the inhibition constant Ki is < 500 nM.

As to `C[C@H]1c2nnc(-c3csc(-c4ccccc4)n3)n2CCN1C(=O)c1ccc(F)cc1` [Compound 167, (S)-(4-fluorophenyl)(8-methyl-3-(2-phenylthiazol-4-yl)-5,6-dihydro-[1,2,4]triazolo[4,3-a]pyrazin-7(8H)-yl)methanone], the Ki lay in the range of 500 to 1000 nM.

As for `C[C@H]1c2nnc(-c3nc(-c4ccc(F)cc4)no3)n2CCN1C(=O)c1ccc(-c2cccs2)cc1` [Compound 168, (S)-(3-(3-(4-fluorophenyl)-1,2,4-oxadiazol-5-yl)-8-methyl-5,6-dihydro-[1,2,4]triazolo[4,3-a]pyrazin-7(8H)-yl)(4-(thiophen-2-yl)phenyl)methanone], the inhibitory constant (Ki) was < 500 nM.

`C[C@@H]1c2nnc(-c3nc(-c4ccc(F)cc4)no3)n2CCN1C(=O)c1ccc(-c2cccs2)cc1` [Compound 169, (R)-(3-(3-(4-fluorophenyl)-1,2,4-oxadiazol-5-yl)-8-methyl-5,6-dihydro-[1,2,4]triazolo[4,3-a]pyrazin-7(8H)-yl)(4-(thiophen-2-yl)phenyl)methanone]: the Ki was < 500 nM.

Turning to `O=C(c1ccc(-c2cccs2)cc1)N1CCn2c(nnc2-c2csc(-c3ccc(F)cc3F)n2)C1` [Compound 170, (3-(2-(2,4-difluorophenyl)thiazol-4-yl)-5,6-dihydro-[1,2,4]triazolo[4,3-a]pyrazin-7(8H)-yl)(4-(thiophen-2-yl)phenyl)methanone], the Ki was < 500 nM.

As to `O=C(c1ccc(-c2cccs2)cc1)N1CCn2c(nnc2-c2noc(-c3ccccc3)n2)C1` [Compound 171, (3-(5-phenyl-1,2,4-oxadiazol-3-yl)-5,6-dihydro-[1,2,4]triazolo[4,3-a]pyrazin-7(8H)-yl)(4-(thiophen-2-yl)phenyl)methanone], the Ki is < 500 nM.

For `O=C(c1ccc(F)cc1)N1CCn2c(nnc2-c2nc(-c3ccccc3)no2)C1` [Compound 172, (4-fluorophenyl)(3-(3-phenyl-1,2,4-oxadiazol-5-yl)-5,6-dihydro-[1,2,4]triazolo[4,3-a]pyrazin-7(8H)-yl)methanone], the inhibition constant (Ki) is < 500 nM.

Consider `O=C(c1ccc(F)cc1)N1CCn2c(nnc2-c2noc(-c3ccccc3)n2)C1` [Compound 173, (4-fluorophenyl)(3-(5-phenyl-1,2,4-oxadiazol-3-yl)-5,6-dihydro-[1,2,4]triazolo[4,3-a]pyrazin-7(8H)-yl)methanone], for which the Ki was < 500 nM.

For `O=C(c1ccc(-c2cccs2)cc1)N1CCn2c(nnc2-c2nc(-c3ccccc3)no2)C1` [Compound 174, (3-(3-phenyl-1,2,4-oxadiazol-5-yl)-5,6-dihydro-[1,2,4]triazolo[4,3-a]pyrazin-7(8H)-yl)(4-(thiophen-2-yl)phenyl)methanone], the inhibition constant Ki is < 500 nM.

`O=C(c1ccc(F)cc1)N1CCn2c(nnc2-c2nc(-c3ccc(F)cc3)no2)C1` [Compound 175, (4-fluorophenyl)(3-(3-(4-fluorophenyl)-1,2,4-oxadiazol-5-yl)-5,6-dihydro-[1,2,4]triazolo[4,3-a]pyrazin-7(8H)-yl)methanone]: the Ki was < 500 nM.

As for `O=C(c1ccc(-c2cccs2)cc1)N1CCn2c(nnc2-c2nc(-c3ccc(F)cc3)no2)C1` [Compound 176, (3-(3-(4-fluorophenyl)-1,2,4-oxadiazol-5-yl)-5,6-dihydro-[1,2,4]triazolo[4,3-a]pyrazin-7(8H)-yl)(4-(thiophen-2-yl)phenyl)methanone], the inhibition constant (Ki) is < 500 nM.

Regarding `O=C(c1ccc(-c2cccs2)cc1)N1CCn2c(nnc2-c2nc(-c3ccc(F)cc3F)no2)C1` [Compound 177, (3-(3-(2,4-difluorophenyl)-1,2,4-oxadiazol-5-yl)-5,6-dihydro-[1,2,4]triazolo[4,3-a]pyrazin-7(8H)-yl)(4-(thiophen-2-yl)phenyl)methanone], the inhibition constant (Ki) was < 500 nM.

Regarding `O=C(c1ccc(F)cc1)N1CCn2c(nnc2-c2n[nH]c(-c3ccccc3)n2)C1` [Compound 178, (4-fluorophenyl)(3-(5-phenyl-1H-1,2,4-triazol-3-yl)-5,6-dihydro-[1,2,4]triazolo[4,3-a]pyrazin-7(8H)-yl)methanone], the Ki lay in the range of 1000 to 5000 nM.

For the compound `O=C(c1ccc(-c2cccs2)cc1)N1CCn2c(nnc2-c2n[nH]c(-c3ccccc3)n2)C1` [Compound 179, (3-(5-phenyl-1H-1,2,4-triazol-3-yl)-5,6-dihydro-[1,2,4]triazolo[4,3-a]pyrazin-7(8H)-yl)(4-(thiophen-2-yl)phenyl)methanone], the Ki is < 500 nM.

In the case of `O=C(c1ccc(F)cc1)N1CCn2c(nnc2-c2csc(-c3ccccc3F)n2)C1` [Compound 180, (4-fluorophenyl)(3-(2-(2-fluorophenyl)thiazol-4-yl)-5,6-dihydro-[1,2,4]triazolo[4,3-a]pyrazin-7(8H)-yl)methanone], the Ki was < 500 nM.

Consider `O=C(c1ccc(-c2cccs2)cc1)N1CCn2c(nnc2-c2csc(-c3ccccc3F)n2)C1` [Compound 181, (3-(2-(2-fluorophenyl)thiazol-4-yl)-5,6-dihydro-[1,2,4]triazolo[4,3-a]pyrazin-7(8H)-yl)(4-(thiophen-2-yl)phenyl)methanone], for which the inhibitory constant (Ki) was < 500 nM.

As to `O=C(c1ccc(-c2ccccc2)cc1)N1CCn2c(nnc2-c2csc(-c3ccccc3F)n2)C1` [Compound 182, [1,1′-biphenyl]-4-yl(3-(2-(2-fluorophenyl)thiazol-4-yl)-5,6-dihydro-[1,2,4]triazolo[4,3-a]pyrazin-7(8H)-yl)methanone], the Ki is < 500 nM.

`O=C(c1ccc(-c2ccc(F)cc2)cc1)N1CCn2c(nnc2-c2csc(-c3ccccc3F)n2)C1` [Compound 183, (4′-fluoro-[1,1′-biphenyl]-4-yl)(3-(2-(2-fluorophenyl)thiazol-4-yl)-5,6-dihydro-[1,2,4]triazolo[4,3-a]pyrazin-7(8H)-yl)methanone]: the Ki is < 500 nM.

(Values after patent publication US10544150B2, “NK-3 receptor selective antagonist compounds, pharmaceutical composition and methods for use in NK-3 receptors mediated disorders” (Ogeda SA, priority 2010, dated 2020).)
